According to PubChem BioAssay (NCI):
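Cultured in 96-well plates, cells were exposed to test compound for 48 hours across five concentrations. GI50 = concentration required for 50% inhibition of growth. TGI marks complete inhibition of growth.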

Legend:
Test in all cases: NCI-60 cell line screen, 48 h
[1] = tested on: NCI-H522 lung
[2] = tested on: CCRF-CEM leukemia
[3] = tested on: M14 melanoma
[4] = tested on: SN12C renal
[5] = tested on: RPMI-8226 leukemia
[6] = tested on: MOLT-4 leukemia
[7] = tested on: OVCAR-5 ovarian
[8] = tested on: DU-145 prostate
[9] = tested on: NCI/ADR-RES ovarian
[10] = tested on: MDA-MB-435

Structure (SMILES)	TGI [1] [µM]	TGI [2] [µM]	TGI [3] [µM]	TGI [4] [µM]	TGI [5] [µM]	TGI [6] [µM]	TGI [7] [µM]	GI50 [8] [µM]	TGI [8] [µM]	GI50 [1] [µM]	GI50 [3] [µM]	GI50 [4] [µM]	GI50 [5] [µM]	GI50 [9] [µM]	TGI [9] [µM]	GI50 [10] [µM]	TGI [10] [µM]	GI50 [7] [µM]	GI50 [6] [µM]	GI50 [2] [µM]
O=C1OC2(c3ccccc3Oc3ccccc32)c2ccccc21	> 100	> 100	> 100	> 100	> 100	> 100	> 100	–	–	–	–	–	–	–	–	–	–	–	–	–
O=C(c1ccccc1)c1c(C(=O)c2ccccc2)c(-c2ccccc2)c2c(-c3ccccc3)sc(-c3ccccc3)c2c1-c1ccccc1	> 100	> 100	> 100	> 100	> 100	–	> 100	–	–	–	–	–	–	–	–	–	–	–	–	–
O=C1c2ccccc2-c2c1c1ccccc1c(=O)n2CCNCCNCCn1c2c(c3ccccc3c1=O)C(=O)c1ccccc1-2	–	–	33.4	14.1	1.24	> 100	34.5	0.179	4.61	2.28	2.58	0.13	0.011	1.11	11.1	0.97	19.6	8.91	–	–
O=C1C(=O)N(c2ccc(Cl)c(Cl)c2)C(=O)C(=O)C1c1nc2ccccc2o1	> 100	–	> 100	> 100	66.5	> 100	> 100	–	–	–	–	–	–	–	–	–	–	–	–	–
COC(=O)Nc1nc2ccccc2c(=O)[nH]1	> 100	> 100	> 100	> 100	–	> 100	> 100	–	> 100	–	–	–	–	–	> 100	–	–	–	–	–
O=S1(=O)C[C@@H](O)[C@H](O)CS1	> 100	–	> 100	> 100	> 100	> 100	> 100	–	–	–	–	–	–	–	–	–	–	–	–	–
CS(=O)c1ccc(COP(N)(=O)N(CCCl)CCCl)cc1 (stereo not given)	> 100	> 100	> 100	> 100	> 100	> 100	> 100	–	–	–	–	–	–	–	–	–	–	–	–	–
COc1ccc2ccc([Se]c3ccc4ccc(OC)cc4c3)cc2c1	> 100	> 100	> 100	> 100	> 100	> 100	–	–	–	–	–	–	–	–	–	–	–	–	–	–
CC1(C)OCC(CO)(Nc2nc(N3CC3)nc(N3CC3)n2)CO1	33.8	> 83.4	25.5	58.6	> 100	19	50.3	–	8.91	–	–	–	–	–	–	–	46.4	–	–	–
CCOC(=O)Oc1c(OC)cc(C(=O)O[C@@H]2C[C@@H]3CN4CCc5c([nH]c6cc(OC)ccc56)[C@H]4C[C@@H]3[C@H](C(=O)OC)[C@H]2OC)cc1OC	18.7	–	18.9	17.7	10.8	23.3	48.1	13.5	95.8	5.18	4.44	4.34	2.23	4.37	23.3	8.33	23.9	18	4.04	–
O=c1cc(-c2ccccc2)nc2n1CCN2Cc1ccccc1	56.1	42.8	> 100	> 100	39.9	79.5	–	34	> 100	20.8	37.9	32.2	15.6	–	–	31.1	> 100	–	20.2	16.2
